Assay results as given in patent publication US11548870B2, “Compounds useful as inhibitors of helios protein” (Bristol-Myers Squibb Company, priority 2019, dated 2023).

How the values were obtained:
[1] = target: T1, Ikaros (Homo sapiens, UniProt Q13422); experiment: Helios Cellular Degradation Assay, Ikaros readout (flow cytometry, Ikaros-Alexa488 antibody staining, 72 h); assay type: cell-based; details: Jurkat cells, 72 h incubation, flow cytometry; for Dmax: Jurkat, read-out: Ikaros Dmax
T1 construct: fluorescently labelled antibodies against Helios and Ikaros; endogenous in cells; host or cells: Jurkat cells
T1 sequence (Q96SW2 whole entry partner): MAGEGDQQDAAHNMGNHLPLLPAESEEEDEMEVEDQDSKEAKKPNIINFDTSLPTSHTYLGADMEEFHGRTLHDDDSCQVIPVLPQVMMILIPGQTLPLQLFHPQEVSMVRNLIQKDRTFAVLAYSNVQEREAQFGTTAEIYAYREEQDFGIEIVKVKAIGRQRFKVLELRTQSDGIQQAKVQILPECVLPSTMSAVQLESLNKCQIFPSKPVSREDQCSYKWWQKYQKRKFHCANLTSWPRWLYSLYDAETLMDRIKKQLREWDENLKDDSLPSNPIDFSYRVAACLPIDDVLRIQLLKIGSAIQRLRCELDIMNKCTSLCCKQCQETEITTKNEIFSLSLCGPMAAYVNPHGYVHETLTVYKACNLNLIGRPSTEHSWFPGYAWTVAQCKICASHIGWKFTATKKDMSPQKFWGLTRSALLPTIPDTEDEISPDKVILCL
T1 sequence (Q16531 whole entry partner): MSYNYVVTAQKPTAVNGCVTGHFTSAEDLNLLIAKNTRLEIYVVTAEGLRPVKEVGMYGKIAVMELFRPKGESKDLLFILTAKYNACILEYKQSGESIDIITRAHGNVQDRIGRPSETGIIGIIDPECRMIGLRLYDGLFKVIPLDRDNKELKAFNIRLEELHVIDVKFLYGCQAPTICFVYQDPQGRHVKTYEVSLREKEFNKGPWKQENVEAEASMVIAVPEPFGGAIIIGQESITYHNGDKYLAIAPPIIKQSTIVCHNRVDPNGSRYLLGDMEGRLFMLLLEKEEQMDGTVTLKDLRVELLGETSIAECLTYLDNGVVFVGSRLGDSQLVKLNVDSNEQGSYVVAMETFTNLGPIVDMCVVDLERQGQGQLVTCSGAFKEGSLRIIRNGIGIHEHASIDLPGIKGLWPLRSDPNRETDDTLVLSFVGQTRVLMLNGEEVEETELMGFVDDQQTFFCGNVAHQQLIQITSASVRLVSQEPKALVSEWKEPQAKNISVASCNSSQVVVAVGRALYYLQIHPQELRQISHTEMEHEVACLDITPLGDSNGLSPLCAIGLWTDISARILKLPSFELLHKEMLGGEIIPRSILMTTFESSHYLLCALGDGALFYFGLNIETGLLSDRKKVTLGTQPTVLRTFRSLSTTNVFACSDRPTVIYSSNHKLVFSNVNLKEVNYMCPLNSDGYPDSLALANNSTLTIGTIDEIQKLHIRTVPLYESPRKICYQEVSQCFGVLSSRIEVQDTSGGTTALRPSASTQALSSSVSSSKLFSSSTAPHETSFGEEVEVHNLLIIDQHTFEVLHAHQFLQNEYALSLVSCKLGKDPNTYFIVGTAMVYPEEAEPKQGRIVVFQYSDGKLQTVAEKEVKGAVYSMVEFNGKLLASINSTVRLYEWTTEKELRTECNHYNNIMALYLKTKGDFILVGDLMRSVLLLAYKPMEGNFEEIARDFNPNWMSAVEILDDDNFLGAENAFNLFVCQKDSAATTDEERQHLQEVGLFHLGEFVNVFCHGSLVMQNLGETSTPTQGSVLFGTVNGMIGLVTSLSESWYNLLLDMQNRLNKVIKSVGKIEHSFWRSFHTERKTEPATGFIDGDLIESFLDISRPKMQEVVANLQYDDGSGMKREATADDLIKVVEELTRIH
T1 sequence (Q13422 whole entry): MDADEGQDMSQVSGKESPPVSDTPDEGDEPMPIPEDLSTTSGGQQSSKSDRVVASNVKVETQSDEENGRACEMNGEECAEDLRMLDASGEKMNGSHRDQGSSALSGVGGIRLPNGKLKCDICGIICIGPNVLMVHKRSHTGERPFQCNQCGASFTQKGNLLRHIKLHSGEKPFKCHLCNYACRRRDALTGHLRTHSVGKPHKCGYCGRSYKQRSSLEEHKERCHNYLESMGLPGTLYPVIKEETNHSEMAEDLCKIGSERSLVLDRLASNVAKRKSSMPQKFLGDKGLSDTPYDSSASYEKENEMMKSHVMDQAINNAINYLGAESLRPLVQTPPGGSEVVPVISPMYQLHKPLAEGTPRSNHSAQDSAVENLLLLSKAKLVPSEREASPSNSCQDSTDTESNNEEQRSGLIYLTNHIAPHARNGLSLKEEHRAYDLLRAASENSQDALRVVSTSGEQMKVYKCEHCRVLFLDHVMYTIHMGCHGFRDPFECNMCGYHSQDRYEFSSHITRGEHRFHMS
In short: (§1)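 Jurkat cells (80,000/well, RPMI+10% FBS) were exposed to compound for 72 h at 37 °C, then fixed, permeabilized and co-stained for 1 h with Ikaros-Alexa488 and Helios-PE antibodies. Intracellular protein levels were read by flow cytometry.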

[2] = target: T2, Helios (Homo sapiens, UniProt Q96SW2+Q9UKS7); experiment: Helios Cellular Degradation Assay (flow cytometry, Helios-PE antibody staining, 72 h); assay type: cell-based; details: Jurkat cells, 72 h incubation, flow cytometry; for Dmax: Jurkat, read-out: Helios Dmax
T2 construct: fluorescently labelled antibodies against Helios and Ikaros; endogenous in cells; host or cells: Jurkat cells
T2 sequence (Q9UKS7 whole entry): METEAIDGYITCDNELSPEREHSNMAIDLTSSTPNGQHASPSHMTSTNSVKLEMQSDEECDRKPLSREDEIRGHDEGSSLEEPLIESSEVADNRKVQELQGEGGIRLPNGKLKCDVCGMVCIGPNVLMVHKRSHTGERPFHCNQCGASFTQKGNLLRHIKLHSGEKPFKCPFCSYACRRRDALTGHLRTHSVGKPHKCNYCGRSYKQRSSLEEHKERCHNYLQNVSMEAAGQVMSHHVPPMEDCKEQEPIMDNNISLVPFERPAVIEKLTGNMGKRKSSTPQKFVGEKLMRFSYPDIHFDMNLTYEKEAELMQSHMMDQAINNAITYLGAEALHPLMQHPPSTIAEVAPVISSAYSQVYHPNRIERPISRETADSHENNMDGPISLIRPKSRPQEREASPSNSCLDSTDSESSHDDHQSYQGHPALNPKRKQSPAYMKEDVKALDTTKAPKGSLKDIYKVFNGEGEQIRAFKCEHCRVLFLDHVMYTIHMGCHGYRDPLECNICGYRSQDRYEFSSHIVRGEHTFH
T2 sequence (Q96SW2 whole entry): as the sequence (Q96SW2 whole entry partner) above
T2 sequence (Q16531 whole entry partner): as the sequence (Q16531 whole entry partner) above
In short: as §1

| Structure (SMILES) | DC50 [1] [nM] | Dmax [1] [%] | DC50 [2] [nM] | Dmax [2] [%] | Ikaros Dmax [1] [%] | Helios Dmax [2] [%] |
| --- | --- | --- | --- | --- | --- | --- |
| CC(NCc1ccnc(-c2ccc3c(c2)CN(C2CCC(=O)NC2=O)C3=O)c1)c1ccccc1 (stereo not drawn) [Example 55, 3-(1-oxo-5-(4-(((1-phenylethyl)amino)methyl)pyridin-2-yl)isoindolin-2-yl) piperidine-2,6-dione] | > 10000 | 10 | 9 | 91 | – | – |
| Cc1cccc(CNCc2ccnc(-c3ccc4c(c3)CN(C3CCC(=O)NC3=O)C4=O)c2)c1 (stereo not drawn) [Example 57, 3-(5-(4-(((3-methylbenzyl)amino)methyl)pyridin-2-yl)-1-oxoisoindolin-2-yl)piperidine-2,6-dione] | > 10000 | 0 | > 10000 | 32 | – | – |
| O=C1CCC(N2Cc3cc(-c4cc(CN5CCC6CCCC65)ccn4)ccc3C2=O)C(=O)N1 (stereo not drawn) [Example 60, 3-(5-(4-((hexahydrocyclopenta[b]pyrrol-1(2H)-yl)methyl)pyridin-2-yl)-1-oxoisoindolin-2-yl) piperidine-2,6-dione] | > 10000 | 19 | 548 | 63 | – | – |
| CCCCNCc1ccnc(-c2ccc3c(c2)CN(C2CCC(=O)NC2=O)C3=O)c1 (stereo not drawn) [Example 61, 3-(5-(4-((butylamino)methyl)pyridin-2-yl)-1-oxoisoindolin-2-yl)piperidine-2,6-dione] | > 10000 | 5 | 12 | 83 | – | – |
| CCCNCc1ccnc(-c2ccc3c(c2)CN(C2CCC(=O)NC2=O)C3=O)c1 (stereo not drawn) [Example 62, 3-(1-oxo-5-(4-((propylamino)methyl)pyridin-2-yl)isoindolin-2-yl)piperidine-2,6-dione] | > 10000 | 5 | 45 | 80 | – | – |
| O=C1CCC(N2Cc3cc(-c4cc(CNCCc5ccccc5)ccn4)ccc3C2=O)C(=O)N1 (stereo not drawn) [Example 63, 3-(1-oxo-5-(4-((phenethylamino)methyl)pyridin-2-yl)isoindolin-2-yl)piperidine-2,6-dione] | > 10000 | 13 | 14 | 80 | – | – |
| O=C1CCC(N2Cc3cc(-c4cc(CNCC5CC5)ccn4)ccc3C2=O)C(=O)N1 (stereo not drawn) [Example 64, 3-(5-(4-(((cyclopropylmethyl)amino)methyl)pyridin-2-yl)-1-oxoisoindolin-2-yl)piperidine-2,6-dione] | > 10000 | 1 | 36 | 73 | – | – |
| O=C1CCC(N2Cc3cc(-c4cc(CNCC5CCCO5)ccn4)ccc3C2=O)C(=O)N1 (stereo not drawn) [Example 66, 3-(1-oxo-5-(4-((((tetrahydrofuran-2-yl)methyl)amino)methyl)pyridin-2-yl)isoindolin-2-yl)piperidine-2,6-dione] | > 10000 | 7 | > 10000 | 26 | – | – |
| COCCNCc1ccnc(-c2ccc3c(c2)CN(C2CCC(=O)NC2=O)C3=O)c1 (stereo not drawn) [Example 68, 3-(5-(4-(((2-methoxyethyl)amino)methyl)pyridin-2-yl)-1-oxoisoindolin-2-yl)piperidine-2,6-dione] | > 10000 | 15 | 192 | 71 | – | – |
| C[C@H]1CCCN1Cc1ccnc(-c2ccc3c(c2)CN(C2CCC(=O)NC2=O)C3=O)c1 (stereo partly drawn) [Example 69, 3-(5-(4-(((S)-2-methylpyrrolidin-1-yl)methyl)pyridin-2-yl)-1-oxoisoindolin-2-yl)piperidine-2,6-dione] | > 10000 | 0 | 783 | 57 | – | – |
| C[C@@H]1CCCCN1Cc1ccnc(-c2ccc3c(c2)CN(C2CCC(=O)NC2=O)C3=O)c1 (stereo partly drawn) [Example 71, 3-(5-(4-(((R)-2-methylpiperidin-1-yl)methyl)pyridin-2-yl)-1-oxoisoindolin-2-yl)piperidine-2,6-dione] | > 10000 | 8 | > 10000 | 17 | – | – |
| C[C@H]1CCN(Cc2ccnc(-c3ccc4c(c3)CN(C3CCC(=O)NC3=O)C4=O)c2)C1 (stereo partly drawn) [Example 72, 3-(5-(4-(((S)-3-methylpyrrolidin-1-yl)methyl)pyridin-2-yl)-1-oxoisoindolin-2-yl) piperidine-2,6-dione] | > 10000 | 13 | 13 | 90 | – | – |
| C[C@H]1CCCN(Cc2ccnc(-c3ccc4c(c3)CN(C3CCC(=O)NC3=O)C4=O)c2)C1 (stereo partly drawn) [Example 73, 3-(5-(4-(((S)-3-methylpiperidin-1-yl)methyl)pyridin-2-yl)-1-oxoisoindolin-2-yl)piperidine-2,6-dione] | > 10000 | 13 | 45 | 62 | – | – |
| C[C@H]1CCCCN1Cc1ccnc(-c2ccc3c(c2)CN(C2CCC(=O)NC2=O)C3=O)c1 (stereo partly drawn) [Example 74, 3-(5-(4-(((S)-2-methylpiperidin-1-yl)methyl)pyridin-2-yl)-1-oxoisoindolin-2-yl)piperidine-2,6-dione] | > 10000 | 16 | 2500 | 53 | – | – |
| C[C@@H]1CCCN(Cc2ccnc(-c3ccc4c(c3)CN(C3CCC(=O)NC3=O)C4=O)c2)C1 (stereo partly drawn) [Example 75, 3-(5-(4-(((R)-3-methylpiperidin-1-yl)methyl)pyridin-2-yl)-1-oxoisoindolin-2-yl)piperidine-2,6-dione] | > 10000 | 10 | 14 | 94 | – | – |
| O=C1CCC(N2Cc3cc(-c4cc(CN5CCC5c5ccccc5)ccn4)ccc3C2=O)C(=O)N1 (stereo not drawn) [Example 76, 3-(1-oxo-5-(4-((2-phenylazetidin-1-yl)methyl)pyridin-2-yl)isoindolin-2-yl) piperidine-2,6-dione] | > 10000 | 12 | 6 | 98 | – | – |
| O=C1CCC(N2Cc3cc(-c4cc(CNC5(C6CC6)CCC5)ccn4)ccc3C2=O)C(=O)N1 (stereo not drawn) [Example 77, 3-(5-(4-(((1-cyclopropylcyclobutyl)amino)methyl)pyridin-2-yl)-1-oxoisoindolin-2-yl)piperidine-2,6-dione] | > 10000 | 12 | 12 | 85 | – | – |
| CN1C[C@@H]2CN(Cc3ccnc(-c4ccc5c(c4)CN(C4CCC(=O)NC4=O)C5=O)c3)C[C@@H]2C1 (stereo partly drawn) [Example 78, 3-(5-(4-(((3aR,6aS)-5-methylhexahydropyrrolo[3,4-c]pyrrol-2(1H)-yl)methyl)pyridin-2-yl)-1-oxoisoindolin-2-yl)piperidine-2,6-dione] | > 10000 | 0 | > 10000 | 49 | – | – |
| O=C1CCC(N2Cc3cc(-c4cc(CN5CC6CC5CO6)ccn4)ccc3C2=O)C(=O)N1 (stereo not drawn) [Example 79, 3-(5-(4-((2-oxa-5-azabicyclo[2.2.1]heptan-5-yl)methyl)pyridin-2-yl)-1-oxoisoindolin-2-yl) piperidine-2,6-dione] | > 10000 | 8 | > 10000 | 26 | – | – |

Now from value to molecule:

| DC50 [1] [nM] | Dmax [1] [%] | DC50 [2] [nM] | Dmax [2] [%] | Ikaros Dmax [1] [%] | Helios Dmax [2] [%] | Structure (SMILES) |
| --- | --- | --- | --- | --- | --- | --- |
| > 10000 | 18 | 13 | 88 | – | – | Cc1ccccc1CNCc1ccnc(-c2ccc3c(c2)CN(C2CCC(=O)NC2=O)C3=O)c1 (stereo not drawn) [Example 56, 3-(5-(4-(((2-methylbenzyl)amino)methyl)pyridin-2-yl)-1-oxoisoindolin-2-yl)piperidine-2,6-dione] |
| > 10000 | 22 | 9 | 88 | – | – | Cc1ccc(CNCc2ccnc(-c3ccc4c(c3)CN(C3CCC(=O)NC3=O)C4=O)c2)cc1 (stereo not drawn) [Example 58, 3-(5-(4-(((4-methylbenzyl)amino)methyl)pyridin-2-yl)-1-oxoisoindolin-2-yl)piperidine-2,6-dione] |
| > 10000 | 20 | 82 | 79 | – | – | CN(Cc1ccnc(-c2ccc3c(c2)CN(C2CCC(=O)NC2=O)C3=O)c1)CC1CCCCC1 (stereo not drawn) [Example 59, 3-(5-(4-(((cyclohexylmethyl)(methyl)amino)methyl)pyridin-2-yl)-1-oxoisoindolin-2-yl) piperidine-2,6-dione] |
| > 10000 | 7 | 55 | 70 | – | – | CC(C)(C)CNCc1ccnc(-c2ccc3c(c2)CN(C2CCC(=O)NC2=O)C3=O)c1 (stereo not drawn) [Example 65, 3-(5-(4-((neopentylamino)methyl)pyridin-2-yl)-1-oxoisoindolin-2-yl)piperidine-2,6-dione] |
| > 10000 | 6 | > 10000 | 41 | – | – | COc1ccc(CNCc2ccnc(-c3ccc4c(c3)CN(C3CCC(=O)NC3=O)C4=O)c2)cc1 (stereo not drawn) [Example 67, 3-(5-(4-(((4-methoxybenzyl)amino)methyl)pyridin-2-yl)-1-oxoisoindolin-2-yl)piperidine-2,6-dione] |
| > 10000 | 10 | 19 | 79 | – | – | C[C@@H]1CCN(Cc2ccnc(-c3ccc4c(c3)CN(C3CCC(=O)NC3=O)C4=O)c2)C1 (stereo partly drawn) [Example 70, 3-(5-(4-(((R)-3-methylpyrrolidin-1-yl)methyl)pyridin-2-yl)-1-oxoisoindolin-2-yl)piperidine-2,6-dione] |
| > 10000 | – | 35 | – | 12 | 99 | CC1CC(NCc2ccnc(-c3ccc4c(c3)CN(C3CCC(=O)NC3=O)C4=O)c2)CCO1 (stereo not drawn) [Example 80, 3-(5-(4-(((2-methyltetrahydro-2H-pyran-4-yl)amino)methyl)pyridin-2-yl)-1-oxoisoindolin-2-yl)piperidine-2,6-dione] |
| > 10000 | 26 | 78 | 64 | – | – | C[C@@H]1C[C@H](C)CN(Cc2ccnc(-c3ccc4c(c3)CN(C3CCC(=O)NC3=O)C4=O)c2)C1 (stereo partly drawn) [Example 81, 3-(5-(4-(((3S,5R)-3,5-dimethylpiperidin-1-yl)methyl)pyridin-2-yl)-1-oxoisoindolin-2-yl)piperidine-2,6-dione] |
